Test results taken from PMC6704710, “Preclinical evaluation of 3D185, a novel potent inhibitor of FGFR1/2/3 and CSF-1R, in FGFR-dependent and macrophage-dominant cancer models” (Journal of Experimental & Clinical Cancer Research : CR, 2019).

Legend:
FGFR1(V561M)(h) = FGFR1(V561M)(h) (Homo sapiens, UniProt P11362, V561M); assay: Eurofins kinase panel; format: biochemical
PKCμ(h) = molecular target: T1, PKCμ(h) (Homo sapiens, UniProt Q15139); assay: Eurofins kinase panel; format: biochemical; settings: read-out: Inhibition rate (%)
T1 construct: purchased Eurofins (KinaseProfiler)
T1 sequence (Q15139 1-912): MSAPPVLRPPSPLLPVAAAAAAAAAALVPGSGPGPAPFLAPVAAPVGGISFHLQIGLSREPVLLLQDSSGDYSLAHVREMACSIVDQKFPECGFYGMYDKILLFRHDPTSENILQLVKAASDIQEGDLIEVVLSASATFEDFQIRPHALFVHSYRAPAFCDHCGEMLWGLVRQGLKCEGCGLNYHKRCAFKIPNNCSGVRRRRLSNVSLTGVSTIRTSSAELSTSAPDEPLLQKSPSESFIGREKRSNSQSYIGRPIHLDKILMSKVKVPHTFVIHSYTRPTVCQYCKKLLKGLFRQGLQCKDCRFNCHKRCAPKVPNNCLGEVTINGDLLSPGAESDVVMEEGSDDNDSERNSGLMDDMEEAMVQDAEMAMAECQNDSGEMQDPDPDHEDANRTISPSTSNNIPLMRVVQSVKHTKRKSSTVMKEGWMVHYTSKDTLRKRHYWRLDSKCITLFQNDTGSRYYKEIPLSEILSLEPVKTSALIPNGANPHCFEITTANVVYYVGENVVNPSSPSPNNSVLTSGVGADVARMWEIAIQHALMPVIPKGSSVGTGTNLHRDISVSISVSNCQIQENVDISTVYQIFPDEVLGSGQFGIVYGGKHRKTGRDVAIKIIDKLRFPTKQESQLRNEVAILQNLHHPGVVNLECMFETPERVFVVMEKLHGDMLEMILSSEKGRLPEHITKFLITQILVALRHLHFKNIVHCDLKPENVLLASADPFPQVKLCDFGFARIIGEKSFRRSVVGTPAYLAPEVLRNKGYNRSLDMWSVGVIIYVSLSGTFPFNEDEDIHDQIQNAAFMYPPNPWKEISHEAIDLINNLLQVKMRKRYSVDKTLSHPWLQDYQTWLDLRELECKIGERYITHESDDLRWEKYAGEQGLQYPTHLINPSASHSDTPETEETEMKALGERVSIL

FGFR1(V561M)(h), sequence (P11362 22-822 V561M): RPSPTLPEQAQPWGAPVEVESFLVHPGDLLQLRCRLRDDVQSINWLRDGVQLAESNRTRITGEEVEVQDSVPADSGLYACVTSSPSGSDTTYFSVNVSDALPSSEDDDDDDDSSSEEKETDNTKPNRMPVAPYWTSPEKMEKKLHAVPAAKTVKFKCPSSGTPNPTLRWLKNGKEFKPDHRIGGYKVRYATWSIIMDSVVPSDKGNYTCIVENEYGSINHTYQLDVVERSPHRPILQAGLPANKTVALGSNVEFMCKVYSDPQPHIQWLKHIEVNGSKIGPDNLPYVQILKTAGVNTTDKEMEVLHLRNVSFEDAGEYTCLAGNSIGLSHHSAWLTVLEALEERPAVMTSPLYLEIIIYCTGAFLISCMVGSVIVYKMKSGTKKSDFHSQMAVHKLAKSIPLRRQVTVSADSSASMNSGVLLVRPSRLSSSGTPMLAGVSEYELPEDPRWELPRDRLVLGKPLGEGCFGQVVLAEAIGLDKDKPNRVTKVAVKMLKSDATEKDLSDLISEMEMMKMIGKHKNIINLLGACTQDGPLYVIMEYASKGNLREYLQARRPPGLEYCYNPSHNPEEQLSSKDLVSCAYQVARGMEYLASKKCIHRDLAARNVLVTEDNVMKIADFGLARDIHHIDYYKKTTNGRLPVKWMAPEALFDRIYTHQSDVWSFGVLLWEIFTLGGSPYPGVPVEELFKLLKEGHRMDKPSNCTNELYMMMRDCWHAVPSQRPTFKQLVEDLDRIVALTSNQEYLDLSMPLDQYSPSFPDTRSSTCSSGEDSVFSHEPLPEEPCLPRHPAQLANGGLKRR

COc1cc(OC)c(Cl)c(-c2ccc3c(NC(=O)c4ccc(N5CCNC(C)(C)C5)cc4)n[nH]c3n2)c1Cl [3D185]
IC50 (FGFR1(V561M)(h); estimated from 372-kinase panel): < 10 nM | inhibition at 0.01 µM (FGFR1(V561M)(h); read-out: Inhibition rate (%)): 58% | inhibition at 0.1 µM (FGFR1(V561M)(h); read-out: Inhibition rate (%)): 94% | inhibition at 1 µM (FGFR1(V561M)(h); read-out: Inhibition rate (%)): 100% | inhibition at 0.01 µM (PKCμ(h); 10 nM): -2% | inhibition at 0.1 µM (PKCμ(h); 100 nM): 2% | inhibition at 1 µM (PKCμ(h); 1000 nM): 11%
